# Results published in ChEMBL document CHEMBL1201862, “PubChem BioAssay data set” (2004).
# Calls of active or inactive are those of the source.
# Legend:
# HeLa = test: viability loss in HeLa cells – cell-based, 24 h, cherry-picked samples, cytotoxicity control, dose response (AID 504726); assay type: functional; settings: Homo sapiens;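 note: potency for cytotoxicity as loss of luminescence signal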
# [1] = target: FAD-linked sulfhydryl oxidase ALR (Homo sapiens, UniProt P55789); test: ALR-catalysed DTT oxidation blockers – biochemical, H2O2 detection, luminescence, cherry-pick, dose response (AID 493248)
# Sequence of FAD-linked sulfhydryl oxidase ALR (P55789 whole entry): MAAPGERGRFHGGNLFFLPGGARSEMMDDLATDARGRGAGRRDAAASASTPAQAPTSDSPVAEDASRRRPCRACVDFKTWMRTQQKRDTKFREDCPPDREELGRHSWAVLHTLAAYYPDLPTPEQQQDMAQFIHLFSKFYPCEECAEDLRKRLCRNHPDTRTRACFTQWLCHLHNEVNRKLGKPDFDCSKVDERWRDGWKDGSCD
# Trypsin = Trypsin (Sus scrofa, UniProt P00761); test: trypsin protease activity blockade – biochemical, quenched peptide fluorescence, cherry-pick, selectivity assay for Rce1 protease inhibitor project, dose response (AID 488789)
# Sequence of Trypsin (P00761 whole entry): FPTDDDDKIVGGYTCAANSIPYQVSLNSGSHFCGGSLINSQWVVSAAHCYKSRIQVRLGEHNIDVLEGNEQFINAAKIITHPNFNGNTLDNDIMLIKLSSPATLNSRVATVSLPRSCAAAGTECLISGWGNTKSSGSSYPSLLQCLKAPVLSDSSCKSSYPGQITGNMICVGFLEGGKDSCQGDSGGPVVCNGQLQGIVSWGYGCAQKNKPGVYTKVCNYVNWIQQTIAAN
# CAAX prenyl protease 2 = target: T1, CAAX prenyl protease 2 (Homo sapiens, UniProt Q9Y256); test: inhibition of Ras-converting CAAX protease Rce1 – biochemical, yeast membranes, quenched-peptide fluorescence, cherry-pick, dose response (AID 588849)
# T1 sequence (Q9Y256 whole entry): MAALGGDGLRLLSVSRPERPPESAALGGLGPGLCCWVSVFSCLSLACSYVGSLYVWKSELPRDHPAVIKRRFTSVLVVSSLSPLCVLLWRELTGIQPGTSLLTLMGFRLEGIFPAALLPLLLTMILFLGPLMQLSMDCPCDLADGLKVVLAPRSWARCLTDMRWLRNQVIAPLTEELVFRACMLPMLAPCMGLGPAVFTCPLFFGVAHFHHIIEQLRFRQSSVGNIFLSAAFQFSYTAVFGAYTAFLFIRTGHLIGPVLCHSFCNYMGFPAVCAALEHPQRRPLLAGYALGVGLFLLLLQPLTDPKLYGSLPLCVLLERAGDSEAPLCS
# Albumin = Albumin (Bos taurus, UniProt P02769); test: Counterscreen for inhibitors of T-cell receptor (TCR)-CD3 interaction: Fluorescence-based biochemical high throughput dose response assay to identify inhibitors of T-cell receptor (TCR)-CD3 interaction using a TAMRA-labeled BSA probe.; assay type: functional
# Sequence of Albumin (P02769 whole entry): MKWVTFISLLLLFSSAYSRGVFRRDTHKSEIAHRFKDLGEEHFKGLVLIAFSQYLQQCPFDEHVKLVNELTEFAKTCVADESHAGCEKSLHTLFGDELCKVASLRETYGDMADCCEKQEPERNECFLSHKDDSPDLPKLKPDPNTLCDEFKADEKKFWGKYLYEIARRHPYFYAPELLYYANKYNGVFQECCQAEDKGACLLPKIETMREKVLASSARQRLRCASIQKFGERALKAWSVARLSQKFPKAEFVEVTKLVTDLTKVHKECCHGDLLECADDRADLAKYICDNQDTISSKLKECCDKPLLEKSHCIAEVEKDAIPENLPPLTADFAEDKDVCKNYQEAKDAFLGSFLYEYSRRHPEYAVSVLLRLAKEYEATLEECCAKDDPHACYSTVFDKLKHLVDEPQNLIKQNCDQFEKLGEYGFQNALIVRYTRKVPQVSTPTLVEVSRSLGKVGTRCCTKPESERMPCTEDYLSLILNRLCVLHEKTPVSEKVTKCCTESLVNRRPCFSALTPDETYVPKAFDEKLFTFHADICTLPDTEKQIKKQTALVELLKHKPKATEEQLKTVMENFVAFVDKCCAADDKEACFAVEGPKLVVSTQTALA
# cells [2] = assay type: functional, cell-based
# [3] = target: 26S proteasome non-ATPase regulatory subunit 14 (Homo sapiens, UniProt O00487); test: inhibition of proteasome subunit RPN11 – biochemical, fluorescence polarization, uHTS hits, confirmation (AID 602368); assay type: functional
# Sequence of 26S proteasome non-ATPase regulatory subunit 14 (O00487 whole entry): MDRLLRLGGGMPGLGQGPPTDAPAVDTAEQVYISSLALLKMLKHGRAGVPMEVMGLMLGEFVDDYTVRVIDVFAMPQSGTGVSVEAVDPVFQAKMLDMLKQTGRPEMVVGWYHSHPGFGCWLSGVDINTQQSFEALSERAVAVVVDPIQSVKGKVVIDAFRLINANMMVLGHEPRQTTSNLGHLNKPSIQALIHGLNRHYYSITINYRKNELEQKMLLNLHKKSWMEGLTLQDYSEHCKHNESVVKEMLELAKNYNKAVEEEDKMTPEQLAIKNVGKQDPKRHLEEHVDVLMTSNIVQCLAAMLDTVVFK
# [4] = NIH-3T3 fibroblast cytotoxicity, dose response, cytotoxicity control, cell-based, fluorescence, Alamar Blue, secondary assay (AID 2327); assay type: functional;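 note: NIH-3T3 mouse fibroblasts cultured with fluconazole at 8 µg/mL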
# INS1 = test: INS-1E survival protection against cytokine death – cell-based, luminescence, retest, dose response (AID 449756); assay type: functional; settings: Rattus norvegicus;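 note: cell death triggered by IL-1 beta plus TNF-alpha plus IFN-gamma mixture; protective hits raise ATP signal compared with cytokine alone wells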
# [5] = target: 72 kDa type IV collagenase (Homo sapiens, UniProt P08253); test: Dose Response validation of uHTS RPN11 inhibitor hits using a MMP-2 Fluorescence assay.; assay type: functional
# Sequence of 72 kDa type IV collagenase (P08253 whole entry): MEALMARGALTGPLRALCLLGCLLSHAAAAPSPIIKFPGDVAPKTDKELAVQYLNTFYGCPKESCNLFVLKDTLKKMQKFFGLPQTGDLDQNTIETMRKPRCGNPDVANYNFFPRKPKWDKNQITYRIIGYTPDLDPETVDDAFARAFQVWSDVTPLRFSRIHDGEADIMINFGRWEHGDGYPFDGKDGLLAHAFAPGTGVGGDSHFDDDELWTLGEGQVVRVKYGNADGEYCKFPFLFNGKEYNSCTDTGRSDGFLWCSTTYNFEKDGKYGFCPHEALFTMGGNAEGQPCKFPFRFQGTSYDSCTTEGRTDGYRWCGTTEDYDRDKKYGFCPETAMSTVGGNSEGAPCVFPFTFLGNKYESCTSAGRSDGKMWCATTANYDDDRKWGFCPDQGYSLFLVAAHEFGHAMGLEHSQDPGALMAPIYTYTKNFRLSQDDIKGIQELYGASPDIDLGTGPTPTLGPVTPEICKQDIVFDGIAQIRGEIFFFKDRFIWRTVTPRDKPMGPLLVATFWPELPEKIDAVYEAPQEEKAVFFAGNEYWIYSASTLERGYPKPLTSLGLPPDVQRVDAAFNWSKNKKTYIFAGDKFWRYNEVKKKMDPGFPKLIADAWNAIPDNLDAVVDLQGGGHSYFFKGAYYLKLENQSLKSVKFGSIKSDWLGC
# [6] = fluconazole-exposed Candida albicans growth modulators – fluorescence, retest, confirmation (AID 2467); assay type: functional, cell-based
# cells [7] = assay type: functional, cell-based; remark: listed apart in the source
# [8] = HepG2 cell cytotoxicity, dose response, cytotoxicity control for non-replicating M. tuberculosis project (AID 489018); assay type: functional; settings: Mycobacterium tuberculosis
# [9] = THP-1 cell cytotoxicity, dose response, cytotoxicity control for non-replicating M. tuberculosis project (AID 489025); assay type: functional
# Prothrombin = Prothrombin (Bos taurus, UniProt P00735); test: thrombin protease inhibitors – biochemical, fluorescence polarization, uHTS hits, dose response (AID 602369); assay type: functional
# [10] = Vero E6 cell cytotoxicity, dose response, cytotoxicity control for non-replicating M. tuberculosis project, secondary assay (AID 492998); assay type: functional, VeroE6; settings: Vero C1008
# Aminopeptidase N = target: T2, Aminopeptidase N (Plasmodium falciparum FcB1/Columbia, UniProt O96935); test: malaria alanyl aminopeptidase activity blockers – biochemical, fluorogenic H-Leu-NHMec substrate, 1536-well (AID 1445); design: species or system Plasmodium falciparum 3D7, 3D7
# T2 sequence (O96935 whole entry): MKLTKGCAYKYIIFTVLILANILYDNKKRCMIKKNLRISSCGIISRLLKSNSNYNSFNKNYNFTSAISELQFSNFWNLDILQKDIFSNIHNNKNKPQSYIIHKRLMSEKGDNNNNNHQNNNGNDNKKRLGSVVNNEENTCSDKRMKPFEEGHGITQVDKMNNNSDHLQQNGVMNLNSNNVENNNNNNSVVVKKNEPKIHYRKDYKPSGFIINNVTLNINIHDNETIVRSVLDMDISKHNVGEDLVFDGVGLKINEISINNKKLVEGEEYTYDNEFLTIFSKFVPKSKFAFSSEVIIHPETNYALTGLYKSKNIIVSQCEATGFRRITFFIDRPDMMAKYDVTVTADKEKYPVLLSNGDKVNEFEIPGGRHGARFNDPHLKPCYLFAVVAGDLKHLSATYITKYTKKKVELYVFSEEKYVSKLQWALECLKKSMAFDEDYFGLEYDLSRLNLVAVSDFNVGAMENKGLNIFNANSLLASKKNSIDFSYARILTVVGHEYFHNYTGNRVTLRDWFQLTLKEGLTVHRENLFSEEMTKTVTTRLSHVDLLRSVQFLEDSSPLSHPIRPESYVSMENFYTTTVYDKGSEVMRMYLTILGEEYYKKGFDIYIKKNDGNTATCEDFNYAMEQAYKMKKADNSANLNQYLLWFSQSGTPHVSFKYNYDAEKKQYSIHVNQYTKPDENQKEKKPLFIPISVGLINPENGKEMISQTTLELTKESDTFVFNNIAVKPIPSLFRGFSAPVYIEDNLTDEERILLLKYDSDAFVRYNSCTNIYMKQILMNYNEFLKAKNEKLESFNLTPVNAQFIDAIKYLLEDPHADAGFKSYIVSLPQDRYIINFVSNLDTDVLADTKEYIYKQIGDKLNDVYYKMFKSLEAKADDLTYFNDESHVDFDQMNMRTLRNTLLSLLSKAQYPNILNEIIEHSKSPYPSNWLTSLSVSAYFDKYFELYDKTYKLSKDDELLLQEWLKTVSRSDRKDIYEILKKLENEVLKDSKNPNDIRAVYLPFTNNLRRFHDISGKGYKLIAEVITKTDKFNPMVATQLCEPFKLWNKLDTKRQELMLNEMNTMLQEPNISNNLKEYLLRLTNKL
# [11] = target: T3, Short transient receptor potential channel 4 (Mus musculus, UniProt Q9QUQ5); test: block of DAMGO-driven TRPC4 calcium entry – cell-based, HEK293 TRPC4/mu-opioid, Fluo-4 calcium, dose response (AID 434942); assay type: functional;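 note: potency of inhibitors blocking the TRPC4 calcium response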
# T3 sequence (Q9QUQ5 whole entry): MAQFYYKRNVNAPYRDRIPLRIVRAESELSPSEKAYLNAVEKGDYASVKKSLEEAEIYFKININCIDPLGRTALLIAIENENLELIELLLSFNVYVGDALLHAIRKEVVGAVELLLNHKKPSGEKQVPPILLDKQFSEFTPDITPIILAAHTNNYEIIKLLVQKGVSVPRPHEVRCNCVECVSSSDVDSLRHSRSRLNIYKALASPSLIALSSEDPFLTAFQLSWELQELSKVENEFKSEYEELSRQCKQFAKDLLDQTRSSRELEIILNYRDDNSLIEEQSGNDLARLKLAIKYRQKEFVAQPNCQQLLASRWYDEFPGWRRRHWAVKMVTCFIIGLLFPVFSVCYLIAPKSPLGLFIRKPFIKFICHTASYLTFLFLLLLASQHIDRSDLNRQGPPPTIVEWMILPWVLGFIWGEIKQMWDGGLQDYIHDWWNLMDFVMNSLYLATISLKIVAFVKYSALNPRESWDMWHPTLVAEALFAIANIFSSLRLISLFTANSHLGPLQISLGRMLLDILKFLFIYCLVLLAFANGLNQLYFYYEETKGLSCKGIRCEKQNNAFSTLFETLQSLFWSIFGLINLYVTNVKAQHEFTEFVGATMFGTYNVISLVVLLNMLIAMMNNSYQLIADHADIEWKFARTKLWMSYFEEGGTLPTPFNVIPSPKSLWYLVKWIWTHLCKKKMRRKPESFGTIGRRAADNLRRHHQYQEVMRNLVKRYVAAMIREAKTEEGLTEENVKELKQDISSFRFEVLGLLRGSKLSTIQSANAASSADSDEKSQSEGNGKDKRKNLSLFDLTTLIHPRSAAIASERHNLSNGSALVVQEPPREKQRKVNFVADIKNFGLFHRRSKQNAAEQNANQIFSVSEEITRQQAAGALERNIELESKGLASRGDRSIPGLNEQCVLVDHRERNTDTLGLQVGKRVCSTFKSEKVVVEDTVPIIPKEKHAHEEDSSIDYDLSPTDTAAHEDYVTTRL
# [12] = target: Glucose-6-phosphate 1-dehydrogenase (Homo sapiens, UniProt P11413); test: inhibition of Homo sapiens G6PD, dose series – biochemical, fluorescence, selectivity assay for P. falciparum G6PD inhibitor project, dose response (AID 504792); assay type: functional
# Sequence of Glucose-6-phosphate 1-dehydrogenase (P11413 whole entry): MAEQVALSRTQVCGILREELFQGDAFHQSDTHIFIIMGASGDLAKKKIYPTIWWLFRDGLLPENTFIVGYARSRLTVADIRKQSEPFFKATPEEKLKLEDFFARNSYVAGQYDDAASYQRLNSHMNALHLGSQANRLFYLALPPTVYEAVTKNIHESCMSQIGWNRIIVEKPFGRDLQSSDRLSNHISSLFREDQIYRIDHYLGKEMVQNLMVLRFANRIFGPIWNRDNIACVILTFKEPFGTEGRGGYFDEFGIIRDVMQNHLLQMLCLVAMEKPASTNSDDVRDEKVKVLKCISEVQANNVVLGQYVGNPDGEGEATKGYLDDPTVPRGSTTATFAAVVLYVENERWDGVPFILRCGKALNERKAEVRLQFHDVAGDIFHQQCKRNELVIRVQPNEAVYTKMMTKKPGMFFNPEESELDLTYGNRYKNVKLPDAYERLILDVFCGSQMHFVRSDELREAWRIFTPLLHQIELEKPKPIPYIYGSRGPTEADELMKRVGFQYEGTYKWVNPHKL
# Hexokinase HKDC1 = target: T4, Hexokinase HKDC1 (Homo sapiens, UniProt Q2TB90); test: inhibition of HKDC1 glucose phosphorylation – biochemical, W721R variant, dose response (AID 504729); assay type: functional
# T4 sequence (Q2TB90 whole entry): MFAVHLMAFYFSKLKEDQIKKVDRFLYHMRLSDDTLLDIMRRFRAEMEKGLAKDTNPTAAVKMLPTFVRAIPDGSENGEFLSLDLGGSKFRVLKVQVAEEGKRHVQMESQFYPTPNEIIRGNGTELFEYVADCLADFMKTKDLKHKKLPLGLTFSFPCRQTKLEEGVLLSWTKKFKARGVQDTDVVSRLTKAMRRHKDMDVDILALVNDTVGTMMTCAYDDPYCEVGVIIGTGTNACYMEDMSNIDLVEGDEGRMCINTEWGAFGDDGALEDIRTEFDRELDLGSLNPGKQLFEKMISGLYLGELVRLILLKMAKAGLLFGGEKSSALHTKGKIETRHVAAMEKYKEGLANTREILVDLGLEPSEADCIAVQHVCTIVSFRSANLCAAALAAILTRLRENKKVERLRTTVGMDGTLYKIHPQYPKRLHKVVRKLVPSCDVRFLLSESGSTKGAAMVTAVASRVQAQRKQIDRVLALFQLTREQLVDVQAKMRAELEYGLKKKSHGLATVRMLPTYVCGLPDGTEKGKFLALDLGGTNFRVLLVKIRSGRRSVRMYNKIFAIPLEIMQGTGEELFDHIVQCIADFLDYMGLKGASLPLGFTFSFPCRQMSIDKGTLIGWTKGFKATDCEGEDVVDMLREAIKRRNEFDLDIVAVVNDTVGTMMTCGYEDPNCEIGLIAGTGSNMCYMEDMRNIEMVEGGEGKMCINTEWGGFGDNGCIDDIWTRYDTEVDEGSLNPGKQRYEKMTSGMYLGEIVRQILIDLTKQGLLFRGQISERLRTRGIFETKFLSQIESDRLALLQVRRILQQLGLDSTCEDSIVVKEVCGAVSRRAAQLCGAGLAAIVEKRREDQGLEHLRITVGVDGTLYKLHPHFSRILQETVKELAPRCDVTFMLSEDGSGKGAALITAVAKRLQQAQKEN
# Vero = test: host cell viability loss, Vero E6 – synthesized analogs, cytotoxicity control for West Nile virus antiviral project, SAR follow-up (AID 2244); assay type: functional; settings: Chlorocebus sabaeus
# Nonstructural protein 1 = Nonstructural protein 1 (Influenza A virus, UniProt Q194T2); assay type: functional, Influenza A virus (A/California/07/2009(H1N1))
# Sequence of Nonstructural protein 1 (Q194T2 whole entry): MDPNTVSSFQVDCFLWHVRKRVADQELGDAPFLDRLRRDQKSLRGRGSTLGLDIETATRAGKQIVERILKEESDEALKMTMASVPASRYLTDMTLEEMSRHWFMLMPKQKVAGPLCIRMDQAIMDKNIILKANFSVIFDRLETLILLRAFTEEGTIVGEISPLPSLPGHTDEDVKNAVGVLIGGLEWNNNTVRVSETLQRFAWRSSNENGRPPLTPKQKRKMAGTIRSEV
# [13] = Luminescence Cell-Based Dose Retest to Confirm Inhibitors of Cancer Stem Cells. [Related pubchem assays (depositor defined):AID2717, AID2721]; assay type: functional; settings: Homo sapiens
structure (smiles),measurement,setting,value
COc1ccc(C2c3ccc(O)cc3Oc3ncn(CCCO)c(=N)c32)cc1OC (configuration not stated),AC50,HeLa,> 350 µM (inactive)
Cc1ccc2nc(C)cc(N/N=C/c3cccc(O)c3)c2c1,AC50,[1],1.02 µM (active)
COc1cc(Cn2c(N)c(C(=O)NCc3ccco3)c3nc4ccccc4nc32)cc(OC)c1OC,AC50,Trypsin,22.3 µM (active)
same,AC50,CAAX prenyl protease 2,3.86 µM (active)
O=C(N/N=C/c1cc(Br)cc(Cl)c1O)c1ccc2c(c1)OCO2,IC50,Albumin,> 94.1 µM (inactive)
same,EC50,cells [2],22.1 µM (active)
same,IC50,[3],15.5 µM (active)
same,EC50,[4],> 150 µM (inactive)
same,AC50,INS1,4.16 µM (active)
same,IC50,[5],65.4 µM (active)
same,EC50,[6],1.03 µM (active)
same,EC50,cells [7],> 350 µM (not active)
same,CC50,[8],16.1 µM (active)
same,CC50,[9],1.95 µM (active)
same,IC50,Prothrombin,33.8 µM (active)
same,CC50,[10],7.35 µM (active)
COc1ccc(/C=N/Nc2ccccn2)cc1OC,AC50,[1],0.771 µM (active)
COc1ccc(-c2csc(NC(=O)Cc3cccc4ccccc34)c2C(=O)O)cc1,IC50,Aminopeptidase N,42.3 µM (active)
same,EC50,[11],7.5 µM (active)
COc1cc(/C=C2\SC(c3ccc(C)cc3)=NC2=O)ccc1O,IC50,[12],> 80 µM (inactive)
same,IC50,Hexokinase HKDC1,38.3 µM (inactive)
O=C(Nc1nc(-c2ccc(Cl)cc2)cs1)c1cccc(Cl)c1,CC50,Vero,< 0.08 µM (active)
COc1ccc(-c2csc(NC(=O)c3ccc(Cl)cc3)n2)cc1,CC50,Vero,> 40 µM (active)
Cc1cc(O)nc(NN/C=C2/C(=O)N(c3ccccc3)C(=O)c3ccccc32)n1,IC50,Aminopeptidase N,47 µM (active)
same,IC50,[3],18.4 µM (active)
same,IC50,[5],> 100 µM (inactive)
same,IC50,Nonstructural protein 1,12 µM (active)
same,IC50,Prothrombin,37.2 µM (active)
Cc1ccc(NNC(=O)c2ccno2)cc1Cl,AC50,INS1,7.1 µM (active)
same,AC50,[1],0.223 µM (active)
same,AC50,[13],2.34 µM (active)
O=[N+]([O-])c1ccc(NN=Cc2ccc(O)cc2O)nc1,IC50,Hexokinase HKDC1,6.23 µM (active)
